In patent US7705020B2, “Benzimidazolone carboxylic acid derivatives” (Pfizer Inc., priority 2004, dated 2010) one finds melting point data, which are given here for one compound.

For `CC(C)n1c(=O)n(C(=O)NCC2CCN(CC3(C(=O)O)CCOCC3)CC2)c2ccccc21` [Example 1, 4-{[4-({[(3-isopropyl-2-oxo-2,3-dihydro-1H-benzimidazol-1-yl)carbonyl]amino}methyl)piperidin-1-yl]methyl}tetrahydro-2H-pyran-4-carboxylic acid], the melting point is 223 °C.

Usually melting point stands for the temperature, or range, at which the solid turns liquid.
